From US20170000849A1, “CD300A RECEPTORS AS VIRUS ENTRY COFACTORS” (INSTITUT NATIONAL DE LA SANTE ET DE LA RECHERCHE MEDICALE …, priority 2013, published 2017)

Assays:
[1] = biological target: binding of CD300a-Fc to DV2 JAM particles (Homo sapiens, UniProt Q9UGN4); experiment: ELISA: binding of CD300a-Fc to DV2 JAM coated particles in the presence of inhibitor; conditions: for inhibition of the binding of CD300a to DV: ANX5 0.31-20 μg/ml or Duramycin 0.625-5 μM added before CD300a-Fc (2 μg/ml); for effect on CD300a-Fc binding to DV (in words): rat mAb 0.625 to 20 μg/ml, EDTA 1.25 to 25 mM mixed with Fc, ANX5, Duramycin added before Fc
Method: Graph representing the amount of CD300a-Fc bound by DV2 JAM coated particles in the presence of anti-CD300Ab. Serial dilutions of a rat mAb to CD300a or its IgG2a isotype were mixed with CD300a-Fc before incubation with DV2 JAM coated particles. Residual bound Fc was detected with a HRP conjugated rabbit pAb to human IgG (1/1000) and OPD substrat. Data are represented as mean±SD of three independent experiments performed in duplicates.
(§1) Bar chart representing the amount of TIM3-Fc, CD300a-Fc or DV-SIGN-Fc bound to DV2 JAM particles in the presence of different concentration of Annexin V, a PtdSer specific ligand. DV2 JAM particles were coated in 96 well plates and incubated for one hour at +4° C. with various concentrations of the PtdSer specific ligand Annexin V before the addition of human IgG1-Fc, TIM3-Fc, CD300a-Fc or DV-SIGN-Fc (2 μg/ml). Bound Fcs were detected with a HRP conjugated rabbit pAb to human IgG (1/1000) and OPD substrate. Data are represented as mean±SD of three independent experiments performed in duplicates.
Bar chart representing the amount of CD300a-Fc or DV-SIGN-Fc bound to DV2 JAM particles in the presence of different concentration of Duramycin. DV2 JAM particles were coated in 96 well plates and incubated for one hour at +4° C. with various concentrations of the PtdEth specific ligand Duramycin before the addition of human IgG1-Fc, TIM3-Fc, CD300a-Fc or DV-SIGN-Fc (2 μg/ml). Bound Fcs were detected with a HRP conjugated rabbit pAb to human IgG (1/1000) and OPD substrate. Data are represented as mean±SD of three independent experiments performed in duplicates.
Bar chart representing the amount of CD300a-Fc bound by DV2 JAM coated particles in the presence of EDTA. Two fold serial dilutions of EDTA (1-25 mM) were mixed with CD300a-Fc before incubation with DV2 JAM coated particles. Bound Fcs were detected with a HRP conjugated rabbit pAb to human IgG (1/1000) and OPD substrate. Data shown are mean±SD of duplicates wells and representative of three independent experiments.
All ELISA were performed on Maxisorp 96 well plates (Nunc). PBS diluted DV particles (1.106 FIU) were coated overnight at 4° C. Coated 3-sn-phosphatidyl-Choline, -Ethanolamine or -Serine (10 μg/well, Sigma, Lyon, France) were diluted in ethanol and the wells air dried. Wells were saturated with TBS 1×, 10 mM CaCl2, 2% BSA for 2 h at 37° C. All dilutions were in TBS 1×, 10 mM CaCl2, washes in TBS 1×, 10 mM CaCl2, 0.5% Tween 20, and incubations, 1 h at 4° C. Annexin V or Duramycin were added previously to Fc chimera while EDTA was mixed with Fcs′. All Fcs' were 2 μg/ml. Bound Fcs' were detected with a pAb rabbit anti-human IgG-HRP and OPD substrate.

[2] = test system: binding of DC-SIGN-Fc to DV2 JAM particles; set-up: species or system human; conditions: DV2 JAM coated particles; ANX5 0.31-20 μg/ml, Duramycin 0.625-5 μM, EDTA 1.25 to 25 mM
Method: All ELISA were performed on Maxisorp 96 well plates (Nunc). PBS diluted DV particles (1.106 FIU) were coated overnight at 4° C. […] Wells were saturated with TBS 1×, 10 mM CaCl2, 2% BSA for 2 h at 37° C. All dilutions were in TBS 1×, 10 mM CaCl2, washes in TBS 1×, 10 mM CaCl2, 0.5% Tween 20, and incubations, 1 h at 4° C. Annexin V or Duramycin were added previously to Fc chimera while EDTA was mixed with Fcs′. All Fcs' were 2 μg/ml. Bound Fcs' were detected with a pAb rabbit anti-human IgG-HRP and OPD substrate.

[3] = test system: binding of TIM3-Fc to DV2 JAM particles; experiment: ELISA: binding of TIM3-Fc to DV2 JAM coated particles in the presence of Annexin V; set-up: species or system human; conditions: ANX5 0.31-20 μg/ml, TIM3-Fc 2 μg/ml
Method: as §1
To identify whether CD300a recognized these phospholipids at the surface of virions, DV2 JAM coated particles were challenged with serially diluted concentrations of the PtdSer specific ligand AnnexinV (ANX5) (0.31-20 μg/ml, FIG. 14) or the PtdEth specific ligand Duramycin (0.625-5 μM, FIG. 15) before the addition of Fc coupled molecules.

Sequence of binding of CD300a-Fc to DV2 JAM particles (Q9UGN4 with tags, fused parts or gaps limits assumed): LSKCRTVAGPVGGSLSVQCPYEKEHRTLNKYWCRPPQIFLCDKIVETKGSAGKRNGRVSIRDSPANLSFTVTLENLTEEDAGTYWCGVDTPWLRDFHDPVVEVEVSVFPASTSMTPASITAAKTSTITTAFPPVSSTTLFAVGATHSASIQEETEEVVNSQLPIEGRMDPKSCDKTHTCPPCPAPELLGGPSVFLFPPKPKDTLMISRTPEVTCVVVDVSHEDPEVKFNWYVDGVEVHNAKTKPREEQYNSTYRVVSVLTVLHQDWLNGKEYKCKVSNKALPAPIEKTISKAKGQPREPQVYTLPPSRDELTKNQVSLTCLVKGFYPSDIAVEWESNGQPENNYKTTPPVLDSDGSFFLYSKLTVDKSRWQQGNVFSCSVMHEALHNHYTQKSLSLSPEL

Substance | inhibition of the binding of CD300a to DV [1] | effect on CD300a-Fc binding to DV (in words) [1] | effect on DV/DC-SIGN-Fc binding (in words) [2] | binding of TIM3-Fc to DV blocked [3]
Annexin V [ANX5] | up to 35% | inhibited in a concentration dependent manner | left unchanged | up to 60%
Duramycin [reference compound] | up to 98% | inhibited in a concentration dependent manner | left unchanged | 
